Experimental data: patent publication US6596749B2, “Aminotriazole compounds” (Les Laboratoires Servier, priority 1999, dated 2003)

Assays:
[1] = target: T1, Y5 receptor (Homo sapiens, UniProt Q15761); test: In vitro affinity for NPY receptors, [125I]-PYY competition binding, Y5 receptor; conditions: radioligand [125I]-PYY 15 to 65 pM
T1 sequence (Q15761 1-445): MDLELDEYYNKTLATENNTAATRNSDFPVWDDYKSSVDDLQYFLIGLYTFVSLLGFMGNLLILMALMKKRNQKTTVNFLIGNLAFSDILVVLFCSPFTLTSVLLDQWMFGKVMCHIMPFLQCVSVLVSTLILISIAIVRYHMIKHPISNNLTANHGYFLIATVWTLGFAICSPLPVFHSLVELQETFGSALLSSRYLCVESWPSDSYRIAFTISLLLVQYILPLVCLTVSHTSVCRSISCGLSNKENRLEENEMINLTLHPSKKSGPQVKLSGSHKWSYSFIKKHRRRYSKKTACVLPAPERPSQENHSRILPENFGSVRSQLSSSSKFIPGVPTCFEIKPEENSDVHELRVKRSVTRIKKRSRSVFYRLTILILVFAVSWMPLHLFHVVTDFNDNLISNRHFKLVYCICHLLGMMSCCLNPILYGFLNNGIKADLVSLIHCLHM
Description: The capacity of the compounds of the invention to bind to NPY receptors was measured on various cell lines, each expressing one of the receptor sub-types studied. Competition binding experiments were carried out using the peptide [^125I]-PYY as radioligand at concentrations ranging from 15 to 65 pM. The non-specific fraction is measured in the presence of a concentration of 1 μM NPY. The cells are incubated for a period ranging from 1 to 2 hours depending upon the lines, and the radioactivity is collected after filtration over a GF/C filter treated with 0.1% PEI, before being measured.

[2] = test system: obese ob/ob mouse; test: Effect on food intake and weight development in the obese mouse; format: in vivo; conditions: female ob/ob C57B1/6J mice; for Food intake % variation (D1), Treated: D1, compared with the basal food intake; for Body weight % variation (D4/D0): between first and last day of treatment
Description: The compounds of the invention were administered in vivo to the obese ob/ob mouse in order to evaluate their influence on food intake and weight development. The animals used are 13- to 18-week-old female ob/ob C57B1/6J mice. They are divided into groups each comprising 4 animals per cage, the cages being fitted with a grating floor, and the mice having free access to food.
Before the experiments, the animals are conditioned for a period ranging from 2 to 3 weeks until their food consumption has stabilised. The experiments may be summarised as follows:
The test compounds are dissolved, immediately before use, in water, 0.9% sodium chloride, propylene glycol or dimethyl sulphoxide, depending upon their solubility, and are administered intraperitoneally (IP), in a volume of 2.5 ml/kg.
The parameters measured are the food intake and the body weight.
The results are expressed as: […]
percentage variation in food intake under treatment compared with the basal food intake;
percentage variation in body weight between the first and last day of treatment.

Row | SMILES | IC50 [1] [nM] | Food intake % variation (D1), Treated ([2]; 1 mg/kg IP twice daily) [%] | Body weight % variation (D4/D0) ([2]; 1 mg/kg IP twice daily) [%] | Food intake % variation (D1), Treated ([2]; 5 mg/kg IP twice daily) [%] | Body weight % variation (D4/D0) ([2]; 5 mg/kg IP twice daily) [%]
1 | O=C(NNS(=O)(=O)c1ccccc1)c1ccc(Nc2nc(-c3ccccc3)n(-c3cccc(C(F)(F)F)c3)n2)cc1 [Example 1, N′-[4-({5-Phenyl-1-[3-(trifluoromethyl)phenyl]-1H-1,2,4-triazol-3-yl}-amino)benzoyl]benzenesulphonohydrazide] | 80 | −45 | −6.4 |  | 
2 | COc1ccc(S(=O)(=O)NNC(=O)c2ccc(Nc3nc(-c4ccccc4)n(-c4cccc(C(F)(F)F)c4)n3)cc2)cc1 [Example 6] | 7 |  |  | −34 | −11.2
